Data published in PubChem BioAssay (NCI).
Where “and” joins values, the source holds several entries; their conditions need not be identical. Equal entries are not always repeated.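 Five concentrations, 48 hours, 96-well plates. GI50 = concentration required for 50% inhibition of growth. TGI is the concentration that stops growth completely.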

Experiments:
Assay in all cases: NCI-60 cell line screen, 48 h
UACC-257 melanoma = tested on: UACC-257 melanoma
UO-31 renal = tested on: UO-31 renal
LOX IMVI melanoma = tested on: LOX IMVI melanoma
TK-10 renal = tested on: TK-10 renal
NCI-H226 lung = tested on: NCI-H226 lung
MDA-MB-231 breast = tested on: MDA-MB-231 breast
MDA-MB-435 = tested on: MDA-MB-435
IGROV1 ovarian = tested on: IGROV1 ovarian
T-47D breast = tested on: T-47D breast
A549 NSCLC = tested on: A549 NSCLC

| Structure (SMILES) | TGI (UACC-257 melanoma) | TGI (UO-31 renal) | TGI (LOX IMVI melanoma) | TGI (TK-10 renal) | TGI (NCI-H226 lung) [µM] | TGI (MDA-MB-231 breast) | TGI (MDA-MB-435) | TGI (IGROV1 ovarian) [µM] | TGI (T-47D breast) | TGI (A549 NSCLC) [µM] | GI50 (UACC-257 melanoma) | GI50 (UO-31 renal) | GI50 (LOX IMVI melanoma) | GI50 (TK-10 renal) | GI50 (NCI-H226 lung) | GI50 (MDA-MB-231 breast) | GI50 (MDA-MB-435) | GI50 (IGROV1 ovarian) | GI50 (T-47D breast) | GI50 (A549 NSCLC) |
| --- | --- | --- | --- | --- | --- | --- | --- | --- | --- | --- | --- | --- | --- | --- | --- | --- | --- | --- | --- | --- |
| O=C(O)CN1C(=O)OC(c2ccccc2)C1=O (stereo not drawn) | > 100 µM | > 100 µM | > 100 µM | > 100 µM | > 100 | > 100 µM | > 100 µM | > 100 | > 100 µM | > 100 |  |  |  |  |  |  |  |  |  |  |
| COc1ccc2c(c1)OCC1c3cc(OC)c4ccccc4c3OC21 (stereo not drawn) | > 100 µM | > 100 µM | > 100 µM | 53.9 µM | 90.2 | 82.9 µM | 7.46 µM | 21.6 | 47 µM | > 100 | 35.5 µM | 22.2 µM | 16.5 µM | 11.8 µM | 15.6 µM | 8.68 µM | 2.56 µM | 4.98 µM | 13.7 µM | 15.8 µM |
| COc1cccc(C(=O)NNc2nc(Cl)nc(N3CCN(C(c4ccccc4)c4ccccc4)CC3)n2)c1 | 11.7 µM | 22 µM | 3.14 µM | > 100 µM | 38 | 3.85 µM | 14.2 µM | 3.07 | > 100 µM | 83.6 | 3.06 µM | 3.14 µM | 1.7 µM | 51 µM | 17 µM | 1.88 µM | 3.96 µM | 1.63 µM | > 100 µM | 22.1 µM |
| CC1(C)N=C(N)N=C(N)N1c1ccc(OCC(=O)Nc2ccc(S(=O)(=O)F)cc2Cl)c(Cl)c1 | > 100 µM | > 100 µM | > 100 µM | > 100 µM | > 100 | > 100 µM | > 100 µM | > 100 | > 100 µM | > 100 | > 100 µM | 44.7 µM | 1.12 µM | 15.4 µM | 57.8 µM | 54.4 µM | 3.36 µM | 0.42 µM | > 100 µM | 2.5 µM |
| O=C(CCN1CCCCC1)c1csc2ccccc12 | > 100 µM | > 100 µM | > 100 µM | > 100 µM | > 100 | > 100 µM | > 100 µM | > 100 | > 100 µM | > 100 |  |  |  |  |  |  |  |  |  |  |
| CN1C(=O)C(N=Nc2ccc([N+](=O)[O-])cc2)SC1=S (stereo not drawn) | 27.1 µM and 54.4 µM | 8.82 µM and 74.7 µM | 48.5 µM and 98.4 µM | 79.7 µM and > 100 µM | > 100 | 51 µM and 44.3 µM | 32.3 µM and 77.1 µM |  | > 100 µM and 47.5 µM | > 100 | 3.63 µM and 10.9 µM | 1.26 µM and 3.55 µM | 2.56 µM and 9.05 µM | 12.6 µM and 5.87 µM | 21 µM and 18 µM | 13.3 µM and 11.7 µM | 3.86 µM and 16.1 µM | 1.99 µM and 11.4 µM | 2.71 µM and 4.26 µM | 5.78 µM and 14.1 µM |
| COc1ccc(C2=C(c3ccccc3)C(=O)N3CCCC3C2)cc1 (stereo not drawn) | > 100 µM | > 100 µM | > 100 µM | > 100 µM | > 100 | > 100 µM | > 100 µM | > 100 | > 100 µM | > 100 | > 49 µM | 2.93 µM | 0.115 µM | 12.9 µM |  | > 36.1 µM | 5.32 µM | 8.51 µM | > 52.4 µM | 0.195 µM |
